pIC50: −log10 of the molar value.
Columns and labels:
[1] = biological target: T1, human PARG (Homo sapiens, UniProt Q86W56); test: PARG enzymatic assay; type: biochemical; settings: recombinant GST-fused human PARG (aa 378-976); 3H-labeled poly-(ADP-ribose) substrate; 23° C., 10 min
T1 construct: human PARG from amino acid 378 to 976; GST (glutathione-S-transferase, pGEX-4T1) (N); made in house; host or cells: E. coli BL21
Method: The potency of PARG inhibition was determined in a PARG enzymatic assay. For each compound, various doses were used to inhibit the PARG reaction. A dose responsible curve was generated to determine the IC50 value and the concentration (in μM) required to achieve 50% inhibition of the reaction.
The PARG assay consisted of (a) preparation of 3H-labeled radioactive PARG as substrate, (b) purification of recombinant PARG, (c) incubation of the compound with the PARG reaction, (d) separation of the product by absorption to glass fiber filter and quantifying the radioactivity of ADP-ribose by scintillation counting.
3H-labeled poly-(ADP-ribose) was made by mixing labeled and unlabeled PAR. Labeled PAR was synthesized in a reaction of 50 mM Tris-HCl (pH 8.0), 4 mM MgCl2, 0.8 μg/mL activated DNA, 3 μM NAD, NEN 3H-NAD (0.1 mCi/mL), 0.8 μl/mL and 1.4 μl/mL Trevigen PARP. The reaction was incubated at room temperature for 60 min, then dialyzed to remove unincorporated 3H NAD using a MWCO 7000 dialysis cassette in 50 mM Phosphate buffer (pH 7.1) at 5° C. over night. Buffer was changed and dialysis continued for 2 h in the morning. The resulting 3H PAR gave 80,000 DPM/10 μL by scintillation counting.
Unlabeled PAR was synthesized in a reaction that consisted of 50 mM Tris-HCl (pH 8.0), 4 mM MgCl2, 0.8 μg/mL activated DNA, 150 μM NAD, and 1.9 μl/mL Trevigen PARP. The reaction was incubated at room temperature for 60 min, and dialyzed to remove unincorporated NAD in a MWCO 7000 cassette using 50 mM Phosphate buffer (pH 7.1) over night at […]. Buffer was changed and dialysis continued for 2 h in the morning. The OD260 of synthesized PAR is […].
The final PAR mix is made by combining 3H-PAR and PAR synthesized @ 150 μM NAD so that the OD260=0.2-0.3 and the DPM/10 μL=10,000 DPM (SA=0.45 Ci/mmole). EDTA was added to 1 mM.
A cDNA fragment encoding the carboxy terminal part of human PARG from amino acid 378 to 976 was amplified by polymerase chain reaction with human thymus cDNA (Clontech, Palo Alto, Calif.) as a template and a pair of primers with the sequences of 5′-[…]-3′ and 5′-[…]-3′. The primers contained the restriction enzyme sites EcoRI and XhoI. The PCR amplified PARG DNA fragment was digested with EcoRI and XhoI, and then ligated to the same sites in pGEX-4T1 plasmid (acquired from Pharmacia/Upjohn Co., Kalamazoo, Mich.) to create pGEX-PARG by using standard molecular biology procedure. The pGEX-PARG was transformed into E. coli strain BL21 for expressing the recombinant protein that has a glutathione-S-transferase at the amino terminus and fused in frame with PARG at the carboxy terminus. The recombinant protein was expressed and purified using glutathione-sephadex 4B beads according to the standard methodology.
A range of potential PARG inhibitors at final concentrations of 200.0 to 0.1 μM were tested, each point done in triplicate. The compounds were dissolved in DMSO resulting in a final DMSO concentration of 5.0%. The reaction was carried out in a volume of 0.1 mL. PARG enzyme was added to a concentration of 0.05 μL/mL to microtiter plates containing approximately 10 μM 3H-labeled poly-(ADP-ribose) in 50 mM Phosphate buffer (pH 7.1), 5 mM B-mercaptoethanol. The reaction was incubated at 23° C. for 10 min. and was stopped with the addition of TCA to a final concentration of 10%.
Enzyme activity was measured by the disappearance of substrate, [poly-(ADP-ribose) polymer], which was quantified as the loss of glass fiber filter adsorbed radioactivity. The reaction was harvested onto Millipore GFC96 well filter plates using the Packard Cell Harvestor. The plates were washed three times with 70% ethanol, air dried, and the radioactivity was measured by scintillation counting.

T1 sequence (Q86W56 378-976): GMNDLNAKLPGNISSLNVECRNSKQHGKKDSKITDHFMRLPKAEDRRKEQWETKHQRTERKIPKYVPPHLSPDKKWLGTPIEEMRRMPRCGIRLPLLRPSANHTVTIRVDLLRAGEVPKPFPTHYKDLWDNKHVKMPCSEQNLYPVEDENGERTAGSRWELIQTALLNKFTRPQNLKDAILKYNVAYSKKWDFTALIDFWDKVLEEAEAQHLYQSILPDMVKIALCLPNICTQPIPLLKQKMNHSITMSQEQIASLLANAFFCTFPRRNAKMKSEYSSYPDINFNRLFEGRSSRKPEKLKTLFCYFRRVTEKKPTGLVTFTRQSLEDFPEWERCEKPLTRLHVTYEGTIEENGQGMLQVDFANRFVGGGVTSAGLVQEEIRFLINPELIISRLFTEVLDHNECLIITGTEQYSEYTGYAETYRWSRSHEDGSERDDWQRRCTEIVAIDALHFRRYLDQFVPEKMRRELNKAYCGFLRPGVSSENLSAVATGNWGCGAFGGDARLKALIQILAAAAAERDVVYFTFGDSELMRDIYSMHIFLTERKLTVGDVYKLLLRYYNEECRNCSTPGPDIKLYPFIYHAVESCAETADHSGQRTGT

A pIC50 [1] of 4.87 and a melting point of 159 to 162 °C were found for O=C(OCc1ccccc1)c1ccc2c(c1)C(Cl)(Cl)c1cc(C(=O)OCc3ccccc3)ccc1-2 [Example 1, 9,9-Dichloro-9H-fluorene-2,7-dicarboxylic acid bis-benzyl ester] in this work.

A pIC50 [1] of 4.95 and a melting point of 91 to 92 °C were found for O=C(OCCCc1ccccc1)c1ccc2c(c1)C(Cl)(Cl)c1cc(C(=O)OCCCc3ccccc3)ccc1-2 [Example 2, 9,9-Dichloro-9H-fluorene-2,7-dicarboxylic acid bis-(3-phenyl-propyl) ester] in this work.

A pIC50 [1] of 5.37 and a melting point of 165 to 167 °C were found for O=C(NCCCc1ccccc1)c1ccc2c(c1)C(Cl)(Cl)c1cc(C(=O)NCCCc3ccccc3)ccc1-2 [Example 13, 2,7-Bis-[N-(3-phenyl-propyl)-carbamoyl]-9,9-dichloro-9H-fluorene] in this work.

A pIC50 [1] of 5.77 and a melting point of 162 to 165 °C were found for O=C(NCCCc1ccccc1)c1ccc2c(c1)C(=O)c1cc(C(=O)NCCCc3ccccc3)ccc1-2 [Example 16] in this work.

A pIC50 [1] of 5.22 and a melting point of 244 to 248 °C were found for O=C(NCCc1ccccc1)c1ccc(C(=O)c2ccc(C(=O)NCCc3ccccc3)cc2)cc1 [Example 18, 4,4′-Bis(N-phenethyl)carbamoyl-benzophenone] in this work.

A pIC50 [1] of 4.77 and a melting point of 157 to 158 °C were found for O=C(c1cccc(C(=O)N2CCN(c3ccccc3)CC2)c1)c1cccc(C(=O)N2CCN(c3ccccc3)CC2)c1 [Example 22] in this work.

A pIC50 [1] of 4.77 and a melting point of 179 to 181 °C were found for O=C(CCCl)c1ccc2c(c1)Cc1cc(C(=O)CCCl)ccc1O2 [Example 37, 2,7-Bis-(3-chloro-propionyl)-xanthene] in this work.

A pIC50 [1] of 5.15 and a melting point of 206 to 208 °C were found for O=C(CCN1CCN(c2ccccc2)CC1)c1ccc2c(c1)Cc1cc(C(=O)CCN3CCN(c4ccccc4)CC3)ccc1O2 [Example 39, 2,7-Bis-[3-(4-phenyl-piperazin-1-yl)propionyl]-xanthene] in this work.

A pIC50 [1] of 4.97 and a melting point of 155 to 157 °C were found for O=C(CCN1CCN(c2cccc(C(F)(F)F)c2)CC1)c1ccc2c(c1)Cc1cc(C(=O)CCN3CCN(c4cccc(C(F)(F)F)c4)CC3)ccc1O2 [Example 40, 2,7-Bis-{3-[4-(3-trifluoromethyl-phenyl)-piperazin-1-yl]-propionyl}-xanthene] in this work.

A pIC50 [1] of 4.76 and a melting point of 166 to 167 °C were found for O=C(CCN1CCN(c2cccc(C(F)(F)F)c2)CC1)c1ccc2oc3ccc(C(=O)CCN4CCN(c5cccc(C(F)(F)F)c5)CC4)cc3c(=O)c2c1 [Example 41, 2,7-Bis-{3-[4-(3-trifluoromethyl-phenyl)-piperazin-1-yl]-propionyl}-xanthen-9-one] in this work.

A pIC50 [1] of 4.00 and a melting point of 199 to 201 °C were found for O=C(CCN1CCN(c2ccccc2)CC1)c1ccc2oc3ccc(C(=O)CCN4CCN(c5ccccc5)CC4)cc3c(=O)c2c1 [Example 42, 2,7-Bis-[3-(4-phenyl-piperazin-1-yl)-propionyl]-xanthen-9-one] in this work.

A pIC50 [1] of 4.92 was found for O=C(c1cccc2c1S(=O)(=O)c1c(cccc1C(=O)N1CCN(c3ccc(C(F)(F)F)cc3)CC1)O2)N1CCN(c2ccc(C(F)(F)F)cc2)CC1 [Example 44, 1,9-Bis-{N-[4-(4-trifluoromethyl-phenyl)-piperazine]carbamoyl}-10,10-dioxo-phenoxathiin] in this work.

A pIC50 [1] of 4.42 was found for O=C(c1cccc2c1S(=O)(=O)c1c(cccc1C(=O)N1CCN(c3ccc(O)cc3)CC1)O2)N1CCN(c2ccc(O)cc2)CC1 [Example 45, 1,9-Bis{N-[4-(4-hydroxy-phenyl)-piperazine]carbamoyl}-10,10-dioxo-phenoxathiin] in this work.

A pIC50 [1] of 4.55 was found for O=C(c1cccc2c1S(=O)(=O)c1c(cccc1C(=O)N1CCN(c3ccncc3)CC1)O2)N1CCN(c2ccncc2)CC1 [Example 46, 1,9-Bis{N-[4-(pyridin-4-yl)-piperazine]carbamoyl}-10,10-dioxo-phenoxathiin] in this work.

A pIC50 [1] of 4.00 was found for O=C(NCCCc1ccccc1)c1cccc2c1S(=O)(=O)c1c(cccc1C(=O)NCCCc1ccccc1)O2 [Example 47, 1,9-Bis-[N-(3-phenpropyl)carbamoyl]-10,10-dioxo-phenoxathiin] in this work.

A pIC50 [1] of 4.41 was found for O=C(NCCc1ccc(Cl)cc1Cl)c1cccc2c1S(=O)(=O)c1c(cccc1C(=O)NCCc1ccc(Cl)cc1Cl)O2 [Example 48, 1,9-Bis{N-[2-(2,4-dichlorophenyl)ethyl]carbamoyl}-10,10-dioxo-phenoxathiin] in this work.

A pIC50 [1] of 5.00 was found for O=C(NCCN1CCCC1)c1cccc2c1S(=O)(=O)c1c(cccc1C(=O)NCCN1CCCC1)O2 [Example 49, 1,9-Bis{N-[2-(pyrrolidin-1-yl)ethyl]carbamoyl}-10,10-dioxo-phenoxathiin] in this work.

A pIC50 [1] of 4.94 was found for O=C(NCCc1cccs1)c1cccc2c1S(=O)(=O)c1c(cccc1C(=O)NCCc1cccs1)O2 [Example 50, 1,9-Bis{N-[2-(thiophen-2-yl)ethyl]carbamoyl}-10,10-dioxo-phenoxathiin] in this work.

A pIC50 [1] of 5.02 was found for O=C(NCCCN1CCOCC1)c1cccc2c1S(=O)(=O)c1c(cccc1C(=O)NCCCN1CCOCC1)O2 [Example 51, 1,9-Bis{N-[3-(morpholin-4-yl)-propyl]carbamoyl}-10,10-dioxo-phenoxathiin] in this work.

A pIC50 [1] of 4.50 was found for COc1cc(CCNC(=O)c2cccc3c2S(=O)(=O)c2c(cccc2C(=O)NCCc2cc(OC)cc(OC)c2)O3)cc(OC)c1 [Example 52, 1,9-Bis {N-[2-(3,5-dimethoxyphenyl)ethyl]carbamoyl}-10,10-dioxo-phenoxathiin] in this work.

A pIC50 [1] of 4.93 was found for CN(CCCC(=O)c1ccc2c(c1)-c1ccc(C(=O)CCCN(C)c3ccccc3)c3cccc-2c13)c1ccccc1 [Example 53, 3,9-Bis[4-(methylphenylamino)butyryl]fluoranthene] in this work.

A pIC50 [1] of 5.27 was found for O=C(CCCn1cccc1)c1ccc2c(c1)-c1ccc(C(=O)CCCn3cccc3)c3cccc-2c13 [Example 54, 3,9-Bis[4-(1-pyrrolo)butyryl]fluoranthene] in this work.

A pIC50 [1] of 4.66 and a melting point of 327 to 329 °C were found for O=C(NCCc1ccccc1)c1ccc2c(c1)C(=O)c1cc(C(=O)NCCc3ccccc3)ccc1-2 [Example 56, 9-Oxo-9H-fluorene-2,7-bis-(phenethyl-amide)] in this work.

A pIC50 [1] of 4.82 and a melting point of 265 to 267 °C were found for O=C(NCc1ccc(Cl)c(Cl)c1)c1ccc2c(c1)C(=O)c1cc(C(=O)NCc3ccc(Cl)c(Cl)c3)ccc1-2 [Example 57, 9-Oxo-9H-fluorene-2,7-bis-(3,4-dichloro-benzylamide)] in this work.

A pIC50 [1] of 5.00 and a melting point of 160 to 163 °C were found for O=C(NCc1ccc(O)c(O)c1)c1ccc2c(c1)C(=O)c1cc(C(=O)NCc3ccc(O)c(O)c3)ccc1-2 [Example 58, 9-Oxo-9H-fluorene-2,7-bis-(3,4-dihydroxy-benzylamide)] in this work.

A pIC50 [1] of 5.54 and a melting point of 207 to 209 °C were found for O=C(CCN1CCN(c2ccc(F)cc2)CC1)c1ccc2c(c1)Cc1cc(C(=O)CCN3CCN(c4ccc(F)cc4)CC3)ccc1O2 [Example 59] in this work.

A pIC50 [1] of 5.96 and a melting point of 182 to 185 °C were found for O=C(CCN1CCN(c2cccc(Cl)c2)CC1)c1ccc2c(c1)Cc1cc(C(=O)CCN3CCN(c4cccc(Cl)c4)CC3)ccc1O2 [Example 60] in this work.
